The record followed here is ChEMBL document CHEMBL3745680, “Meroterpenoids from a Tropical Dysidea sp. Sponge” (J Nat Prod, 2015).

Structures are written as SMILES. Converted amounts (≈) assume the structure as drawn.

The test system of assay [1] is Trichophyton rubrum. The experiment in a line: Antifungal activity against Trichophyton rubrum IFO 9185 after 48 to 72 hrs at 28 degC by serial 2-fold dilution method. Type of assay: functional.
Assay [2] has as its system Trichophyton mentagrophytes. The experiment in a line: Antifungal activity against Trichophyton mentagrophytes IFO 40996 after 48 to 72 hrs at 28 degC by serial 2-fold dilution method. Type of assay: functional.
The subject of assay [3] is Candida albicans. The experiment in a line: Antifungal activity against Candida albicans ATCC 10231 after 48 to 72 hrs at 28 degC by serial 2-fold dilution method. Type of assay: functional.
Assay [4] concerns Aspergillus fumigatus. The assay can be described thus: Antifungal activity against Aspergillus fumigatus HIC 6094 after 48 to 72 hrs at 28 degC by serial 2-fold dilution method. Type of assay: functional.
Assay [5] deals with T1, Sortase A (Staphylococcus aureus, UniProt Q9S446).
T1 sequence (Q9S446 whole entry): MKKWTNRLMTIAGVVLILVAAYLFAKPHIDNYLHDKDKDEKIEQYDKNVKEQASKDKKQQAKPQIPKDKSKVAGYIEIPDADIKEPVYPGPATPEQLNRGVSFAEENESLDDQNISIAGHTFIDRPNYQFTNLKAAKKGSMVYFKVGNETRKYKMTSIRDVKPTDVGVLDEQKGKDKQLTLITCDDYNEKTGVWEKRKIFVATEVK
The assay can be described thus: Inhibition of Staphylococcus aureus ATCC 6538p sortase A expressed in Escherichia coli using dabcyl-QALPETGEE-edans as substrate incubated for 1 hr by fluorescence spectrophotometry analysis.

For assay [6], the system named is Proteus hauseri. The assay can be described thus: Antibacterial activity against Proteus hauseri NBRC 3851 after 24 hrs at 37 degC by broth dilution method. Type of assay: functional. The settings on record: NBRC 3851, 24 h.
Assay [7] concerns Salmonella enterica. The experiment in a line: Antibacterial activity against Salmonella enterica ATCC 14028 after 24 hrs at 37 degC by broth dilution method. Type of assay: functional. The settings on record: ATCC 14028, 24 h.
The test system of assay [8] is Bacillus subtilis. The assay can be described thus: Antibacterial activity against Bacillus subtilis ATCC 6633 after 24 hrs at 37 degC by broth dilution method. Type of assay: functional. The settings on record: ATCC 6633, 24 h.
Assay [9] concerns K562. The experiment in a line: Cytotoxicity against human K562 cells assessed as reduction in cell viability after 72 hrs by MTT assay. To be noted: K562, 72 h. Type of assay: functional, cell-based. For orientation: Tetrazolium dyes change colour on reduction, which living cells bring about.
In assay [10] the test system is Escherichia coli. The experiment in a line: Antibacterial activity against Escherichia coli ATCC 35270 after 24 hrs at 37 degC by broth dilution method. The settings on record: ATCC 35270, 24 h. Type of assay: functional.
Assay [11] has as its target Sodium/potassium-transporting ATPase. The experiment in a line: Inhibition of Na+/K+ -ATPase in human intrauterine growth restriction placental membrane using 3-O-methylfluorescein phosphate by fluorometric method in presence of Kcl. Type of assay: tissue-based.
The test system of assay [12] is A549. The assay can be described thus: Cytotoxicity against human A549 cells assessed as reduction in cell viability after 72 hrs by MTT assay. Type of assay: functional, cell-based. The settings on record: A549, 72 h.
Assay [13] has as its system Kocuria rhizophila. The assay can be described thus: Antibacterial activity against Kocuria rhizophila NBRC 12708 after 24 hrs at 37 degC by broth dilution method. Type of assay: functional. The settings on record: NBRC 12708, 24 h.
Assay [14] relates to Staphylococcus aureus. The experiment in a line: Antibacterial activity against Staphylococcus aureus ATCC 6538p after 24 hrs at 37 degC by broth dilution method. Type of assay: functional. Background: In broth dilution the organism is exposed to a series of concentrations in liquid medium.
Assay [15] in a line: Inhibition of Magnaporthe grisea Guy 11 isocitrate lyase using isocitrate as substrate by spectrophotometric based glyoxylate cycle assay. Details: species or system Pyricularia grisea.

The MIC is the lowest concentration found to suppress growth. For `C[C@@H]1[C@H](O)[C@@H](C)/C=C/C=C/C=C/C=C/C=C/C=C/C=C/[C@H](O[C@@H]2O[C@H](C)[C@@H](O)[C@H](N)[C@@H]2O)C[C@@H]2O[C@](O)(C[C@@H](O)C[C@@H](O)[C@H](O)CC[C@@H](O)C[C@@H](O)CC(=O)O[C@H]1C)C[C@H](O)[C@H]2C(=O)O` [AMPHOTERICIN B], the MIC worked out at 1 µg/mL (≈ 1.08 µM) in assay [1], 4 µg/mL (≈ 4.33 µM) in assay [2], 0.5 µg/mL (≈ 0.541 µM) in [3] and 8 µg/mL (≈ 8.66 µM) in [4].
The term IC50 denotes the concentration needed to halve the response being measured. For `C=C1CCC[C@@]23C4=C(C[C@]2(C)[C@@H](C)CC[C@@]13C)C(=O)C=C(NC)C4=O`, the MIC in assay [1] is over 128 µg/mL; in assay [6] it was over 128 µg/mL; in assay [2], 128 µg/mL (≈ 377 µM); in assay [3] it was over 128 µg/mL; in assay [7], over 128 µg/mL; in [8], over 128 µg/mL. Moreover, the MIC was over 128 µg/mL in [10], 2 µg/mL (≈ 5.89 µM) in assay [13], over 128 µg/mL in assay [4] and over 128 µg/mL in assay [14]. Moreover, the IC50 in [5] was over 377 µM; in [9], 4 µM; in [11], over 377 µM; in [12] it was 4.9 µM.
For `C=C1CCC[C@H]2[C@](C)(CC3=CC(=O)C=C(N(C)CCS(=O)(=O)O)C3=O)[C@@H](C)CC[C@@]12C`, the MIC is over 128 µg/mL in [1]; 128 µg/mL (≈ 285 µM) in assay [6]; 128 µg/mL (≈ 285 µM) in [2]; 128 µg/mL (≈ 285 µM) in [3]; 128 µg/mL (≈ 285 µM) in assay [7]; 64 µg/mL (≈ 142 µM) in assay [8]. In addition, the MIC in [10] was over 128 µg/mL; in [13], 64 µg/mL (≈ 142 µM); in [4] it was over 128 µg/mL; in assay [14], 128 µg/mL (≈ 285 µM). Also, the IC50 in assay [5] is over 285 µM; in assay [15] it was 93.3 µg/mL (≈ 208 µM); in [9], 5.7 µM; in [11] it was 94.5 µM; in assay [12], 6.1 µM.
On to `COc1ccc2cc3[n+](cc2c1OC)CCc1cc2c(cc1-3)OCO2` [BERBERINE CHLORIDE], for which, in assay [5], the midpoint of inhibition, the IC50, lay at 109 µM.
As to `C=C1CCC[C@@]23C4=C(C[C@]2(C)[C@@H](C)CC[C@@]13C)C(=O)C(OC)=CC4=O`, the MIC is over 128 µg/mL in [1]; 16 µg/mL (≈ 47 µM) in assay [6]; over 128 µg/mL in assay [2]; over 128 µg/mL in [3]; 16 µg/mL (≈ 47 µM) in assay [7]; 16 µg/mL (≈ 47 µM) in [8]. Further, the MIC in [10] was over 128 µg/mL; in assay [13] it was 8 µg/mL (≈ 23.5 µM); in assay [4], over 128 µg/mL; in [14] it was over 128 µg/mL. The IC50 in [15] was over 128 µg/mL; in [9], 0.7 µM; in assay [11], over 376 µM; in assay [12], 3.3 µM.
As for `C=C1CCC[C@H]2[C@](C)(Cc3cc(O)ccc3O)[C@@H](C)CC[C@@]12C` [ARENAROL], the minimum inhibitory concentration (MIC) in [1] is 4 µg/mL (≈ 12.7 µM); in [6] it was 2 µg/mL (≈ 6.36 µM); in assay [2], 8 µg/mL (≈ 25.4 µM); in [3], 4 µg/mL (≈ 12.7 µM); in assay [7], 4 µg/mL (≈ 12.7 µM); in assay [8], 4 µg/mL (≈ 12.7 µM). In addition, the MIC was over 128 µg/mL in assay [10], 4 µg/mL (≈ 12.7 µM) in assay [13], over 128 µg/mL in assay [4] and 4 µg/mL (≈ 12.7 µM) in [14]. For the same compound, the IC50 in assay [5] was over 407 µM; in assay [9], 3.4 µM; in [11], 11.4 µM; in assay [12] it was 3.7 µM.
`C=C1CCC[C@H]2[C@](C)(CC3=CC(=O)C=C(NCCS(=O)(=O)O)C3=O)[C@@H](C)CC[C@@]12C`: the MIC in assay [1] was over 128 µg/mL; in [6], 32 µg/mL (≈ 73.5 µM); in assay [2], 128 µg/mL (≈ 294 µM); in assay [3], 16 µg/mL (≈ 36.7 µM); in [7] it was 32 µg/mL (≈ 73.5 µM); in assay [8], 32 µg/mL (≈ 73.5 µM). For the same compound, the MIC is over 128 µg/mL in assay [10], 8 µg/mL (≈ 18.4 µM) in [13], over 128 µg/mL in [4] and 64 µg/mL (≈ 147 µM) in assay [14]. In addition, the IC50 in assay [5] is 272 µM; in assay [15], 43.5 µg/mL (≈ 99.9 µM); in assay [9] it was 6.9 µM; in [11], 82.2 µM; in [12], 4.2 µM.
For the compound `CC1(C)S[C@@H]2[C@H](NC(=O)[C@H](N)c3ccccc3)C(=O)N2[C@H]1C(=O)O` [AMPICILLIN], the MIC was under 0.06 µg/mL in assay [6]; 0.06 µg/mL (≈ 0.172 µM) in assay [7]; under 0.06 µg/mL in [8]; 4 µg/mL (≈ 11.4 µM) in [10]; under 0.06 µg/mL in assay [13]; 0.13 µg/mL (≈ 0.372 µM) in assay [14].
`O=C(O)CC[N+](=O)[O-]` registered an IC50 in [15] of 2.5 µg/mL (≈ 21 µM).
As for `C=C1CCC[C@@]23C4=C(C[C@]2(C)[C@@H](C)CC[C@@]13C)C(=O)C=C(NCCS(=O)(=O)O)C4=O`, the MIC in [1], in assay [6], in [2], in assay [3], in assay [7] and in assay [8] was over 128 µg/mL throughout. Besides, the MIC in [10] is over 128 µg/mL; in assay [13] it was 128 µg/mL (≈ 295 µM); in [4], over 128 µg/mL; in assay [14], over 128 µg/mL. Besides, the IC50 is over 295 µM in assay [5], 1.1 µM in assay [9], 285 µM in assay [11] and 2.3 µM in assay [12].
As to `C=C1CCC[C@@]23Oc4ccc(O)cc4C[C@]2(C)[C@@H](C)CC[C@@]13C`, the MIC in assay [1] is over 128 µg/mL; in assay [6], 2 µg/mL (≈ 6.4 µM); in [2], 8 µg/mL (≈ 25.6 µM); in [3], over 128 µg/mL; in assay [7], 1 µg/mL (≈ 3.2 µM); in assay [8], 1 µg/mL (≈ 3.2 µM). Further, the MIC is over 128 µg/mL in assay [10], 1 µg/mL (≈ 3.2 µM) in assay [13], over 128 µg/mL in [4] and 2 µg/mL (≈ 6.4 µM) in assay [14]. The IC50 in assay [5] was over 410 µM; in assay [9] it was 4.8 µM; in [11], 69.1 µM; in assay [12], 5.9 µM.
